Assay results published in the NIST ThermoML archive (doi:10.1021/je700026d).
Numbers after ± are expanded uncertainties.

Columns and labels:
[1] = Liquid; for speed of sound: 100 kPa, Linear variable-path acoustic interferometer; for viscosity / mass density: 101.3 kPa; for viscosity: Capillary tube (Ostwald / Ubbelohde) method; for mass density: Pycnometric method
[2] = xn = mol fraction of the nth substance listed; details: Liquid; for speed of sound: 100 kPa, Linear variable-path acoustic interferometer; for viscosity: Capillary tube (Ostwald / Ubbelohde) method; for mass density: Pycnometric method

C[S+](C)[O-] [dimethyl sulfoxide] gave a speed of sound ([1]; 298.15 K) of 1493 ± 3.4 m/s, a viscosity ([1]; 298.15 K) of 2.042 ± 0.034 mPa·s and a mass density ([1]; 298.15 K) of 1095.4 ± 2.5 kg/m3. It also gave a viscosity ([1]; 308.15 K) of 1.568 ± 0.026 mPa·s, a mass density ([1]; 308.15 K) of 1085.9 ± 2.5 kg/m3 and a viscosity ([1]; 318.15 K) of 1.485 ± 0.024 mPa·s. It also gave a mass density ([1]; 318.15 K) of 1076.9 ± 2.5 kg/m3.

With COCCO [2-methoxyethan-1-ol] + NC=O the speed of sound ([2]; 298.15 K, x2 = 0) was 1339.4 ± 1.8 m/s, the viscosity ([2]; 298.15 K, 101.3 kPa, x2 = 0) was 1.543 ± 0.014 mPa·s and the mass density ([2]; 298.15 K, 101.3 kPa, x2 = 0) was 959.7 ± 0.7 kg/m3. The viscosity ([2]; 308.15 K, 101.3 kPa, x2 = 0) was 1.257 ± 0.012 mPa·s, the mass density ([2]; 308.15 K, 101.3 kPa, x2 = 0) was 951.5 ± 0.7 kg/m3 and the viscosity ([2]; 318.15 K, 101.3 kPa, x2 = 0) was 1.051 ± 0.011 mPa·s. For the same compound, the mass density ([2]; 318.15 K, 101.3 kPa, x2 = 0) was 945.9 ± 0.7 kg/m3.

NC=O [formamide] + CC(=O)c1ccccc1 showed a speed of sound ([2]; 298.15 K, x1 = 1) of 1591.3 ± 3.4 m/s, a viscosity ([2]; 298.15 K, 101.3 kPa, x1 = 1) of 3.302 ± 0.055 mPa·s and a mass density ([2]; 298.15 K, 101.3 kPa, x1 = 1) of 1129.2 ± 2.6 kg/m3. It also gave a viscosity ([2]; 308.15 K, 101.3 kPa, x1 = 1) of 2.542 ± 0.043 mPa·s, a mass density ([2]; 308.15 K, 101.3 kPa, x1 = 1) of 1120.5 ± 2.6 kg/m3 and a viscosity ([2]; 318.15 K, 101.3 kPa, x1 = 1) of 2.001 ± 0.034 mPa·s. It also gave a mass density ([2]; 318.15 K, 101.3 kPa, x1 = 1) of 1111.1 ± 2.6 kg/m3.

CC#N [acetonitrile] showed a speed of sound ([1]; 298.15 K) of 1260.2 ± 5.2 m/s, a viscosity ([1]; 298.15 K) of 0.344 ± 0.007 mPa·s and a mass density ([1]; 298.15 K) of 776 ± 0.7 kg/m3. The viscosity ([1]; 308.15 K) was 0.313 ± 0.007 mPa·s, the mass density ([1]; 308.15 K) was 766.3 ± 0.7 kg/m3 and the viscosity ([1]; 318.15 K) was 0.289 ± 0.007 mPa·s. It also gave a mass density ([1]; 318.15 K) of 755 ± 0.7 kg/m3.

COCCO [2-methoxyethan-1-ol] showed a speed of sound ([1]; 298.15 K) of 1339.4 ± 1.8 m/s, a viscosity ([1]; 298.15 K) of 1.543 ± 0.014 mPa·s and a mass density ([1]; 298.15 K) of 959.7 ± 0.7 kg/m3. It also gave a viscosity ([1]; 308.15 K) of 1.257 ± 0.012 mPa·s, a mass density ([1]; 308.15 K) of 951.5 ± 0.7 kg/m3 and a viscosity ([1]; 318.15 K) of 1.051 ± 0.011 mPa·s. For the same compound, the mass density ([1]; 318.15 K) was 945.9 ± 0.7 kg/m3.

Work on COCCOC [1,2-dimethoxyethane] yielded a speed of sound ([1]; 298.15 K) of 1146.2 ± 1.7 m/s, a viscosity ([1]; 298.15 K) of 0.409 ± 0.007 mPa·s and a mass density ([1]; 298.15 K) of 861.5 ± 1 kg/m3. It also gave a viscosity ([1]; 308.15 K) of 0.366 ± 0.007 mPa·s, a mass density ([1]; 308.15 K) of 850.7 ± 1 kg/m3 and a viscosity ([1]; 318.15 K) of 0.33 ± 0.007 mPa·s. For the same compound, the mass density ([1]; 318.15 K) was 839.6 ± 1 kg/m3.

Work on C[S+](C)[O-] [dimethyl sulfoxide] + NC=O yielded a speed of sound ([2]; 298.15 K, x2 = 0) of 1493 ± 3.4 m/s, a viscosity ([2]; 298.15 K, 101.3 kPa, x2 = 0) of 2.042 ± 0.034 mPa·s and a mass density ([2]; 298.15 K, 101.3 kPa, x2 = 0) of 1095.4 ± 2.5 kg/m3. It also gave a viscosity ([2]; 308.15 K, 101.3 kPa, x2 = 0) of 1.568 ± 0.026 mPa·s, a mass density ([2]; 308.15 K, 101.3 kPa, x2 = 0) of 1085.9 ± 2.5 kg/m3 and a viscosity ([2]; 318.15 K, 101.3 kPa, x2 = 0) of 1.485 ± 0.024 mPa·s. The mass density ([2]; 318.15 K, 101.3 kPa, x2 = 0) was 1076.9 ± 2.5 kg/m3.

For NC=O [formamide], the speed of sound ([1]; 298.15 K) was 1591.3 ± 3.4 m/s, the viscosity ([1]; 298.15 K) was 3.302 ± 0.055 mPa·s and the mass density ([1]; 298.15 K) was 1129.2 ± 2.6 kg/m3. The viscosity ([1]; 308.15 K) was 2.542 ± 0.043 mPa·s, the mass density ([1]; 308.15 K) was 1120.5 ± 2.6 kg/m3 and the viscosity ([1]; 318.15 K) was 2.001 ± 0.034 mPa·s. For the same compound, the mass density ([1]; 318.15 K) was 1111.1 ± 2.6 kg/m3.

For CC#N [acetonitrile] + NC=O, the speed of sound ([2]; 298.15 K, x2 = 0) was 1260.2 ± 5.2 m/s, the viscosity ([2]; 298.15 K, 101.3 kPa, x2 = 0) was 0.344 ± 0.007 mPa·s and the mass density ([2]; 298.15 K, 101.3 kPa, x2 = 0) was 776 ± 0.7 kg/m3. It also gave a viscosity ([2]; 308.15 K, 101.3 kPa, x2 = 0) of 0.313 ± 0.007 mPa·s, a mass density ([2]; 308.15 K, 101.3 kPa, x2 = 0) of 766.3 ± 0.7 kg/m3 and a viscosity ([2]; 318.15 K, 101.3 kPa, x2 = 0) of 0.289 ± 0.007 mPa·s. The mass density ([2]; 318.15 K, 101.3 kPa, x2 = 0) was 755 ± 0.7 kg/m3.

NC=O [formamide] + COCCOC gave a speed of sound ([2]; 298.15 K, x1 = 1) of 1591.3 ± 3.4 m/s, a mass density ([2]; 298.15 K, 101 kPa, x1 = 1) of 1129.2 ± 2.7 kg/m3 and a viscosity ([2]; 298.15 K, 101.3 kPa, x1 = 1) of 3.302 ± 0.055 mPa·s. It also gave a mass density ([2]; 308.15 K, 101 kPa, x1 = 1) of 1120.5 ± 2.7 kg/m3, a viscosity ([2]; 308.15 K, 101.3 kPa, x1 = 1) of 2.542 ± 0.043 mPa·s and a mass density ([2]; 318.15 K, 101 kPa, x1 = 1) of 1111.1 ± 2.7 kg/m3. The viscosity ([2]; 318.15 K, 101.3 kPa, x1 = 1) was 2.001 ± 0.034 mPa·s.

CC(=O)c1ccccc1 [acetophenone] showed a speed of sound ([1]; 298.15 K) of 1296.4 ± 1.8 m/s, a viscosity ([1]; 298.15 K) of 1.653 ± 0.014 mPa·s and a mass density ([1]; 298.15 K) of 1023.1 ± 0.7 kg/m3. The viscosity ([1]; 308.15 K) was 1.412 ± 0.013 mPa·s, the mass density ([1]; 308.15 K) was 1014.8 ± 0.7 kg/m3 and the viscosity ([1]; 318.15 K) was 1.117 ± 0.012 mPa·s. For the same compound, the mass density ([1]; 318.15 K) was 1007.5 ± 0.8 kg/m3.
